Data taken from the NIST ThermoML archive (doi:10.1021/je7006742).
± gives the expanded uncertainty stated by the source.

Assays:
[1] = 101 kPa, Liquid
[2] = xn = mol fraction of the nth substance listed; details: 101 kPa, Liquid

COc1ccc(C=O)cc1 [4-methoxybenzaldehyde]
[1]
Details | mass density [kg/m3] | viscosity [mPa·s]
298.15 K | 1120 ± 3 | 3.706 ± 0.33
308.15 K | 1112 ± 3 | 2.83 ± 0.25
318.15 K | 1105 ± 3 | 2.232 ± 0.2

COc1ccc(C=O)cc1 [4-methoxybenzaldehyde] + C=CC#N
[2]
Details | mass density, 298.15 K [kg/m3] | mass density, 308.15 K [kg/m3] | mass density, 318.15 K [kg/m3] | speed of sound, 298.15 K [m/s] | viscosity, 298.15 K [mPa·s] | viscosity, 308.15 K [mPa·s] | viscosity, 318.15 K [mPa·s]
x2 = 0 | 1120 ± 3 | 1112 ± 3 | 1105 ± 3 | – | 3.706 ± 0.33 | 2.83 ± 0.25 | 2.232 ± 0.2
x2 = 0.222 | 1079 ± 2 | 1072 ± 3 | 1066 ± 3 | 1446.6 ± 12 | 2.035 ± 0.19 | 1.828 ± 0.17 | 1.53 ± 0.14
x2 = 0.391 | 1040 ± 2 | 1034 ± 2 | 1029 ± 3 | 1384.8 ± 11 | 1.341 ± 0.13 | 1.226 ± 0.12 | 1.095 ± 0.11
x2 = 0.524 | 1003 ± 2 | 997 ± 2 | 992 ± 3 | 1345.8 ± 11 | 0.865 ± 0.087 | 0.852 ± 0.086 | 0.798 ± 0.081
x2 = 0.631 | 968 ± 2 | 962 ± 2 | 957 ± 2 | 1310 ± 11 | 0.742 ± 0.077 | 0.678 ± 0.071 | 0.644 ± 0.068
x2 = 0.72 | 934 ± 2 | 930 ± 2 | 924 ± 2 | 1277.6 ± 10 | 0.55 ± 0.06 | 0.538 ± 0.059 | 0.515 ± 0.057
x2 = 0.794 | 903 ± 2 | 898 ± 2 | 893 ± 2 | 1244.6 ± 10 | 0.545 ± 0.06 | 0.469 ± 0.053 | 0.443 ± 0.051
x2 = 0.857 | 873 ± 2 | 868 ± 2 | 864 ± 2 | 1217.8 ± 10 | 0.415 ± 0.048 | 0.404 ± 0.047 | 0.39 ± 0.046
x2 = 0.911 | 845 ± 2 | 840 ± 2 | 835 ± 2 | 1201.6 ± 10 | 0.435 ± 0.05 | 0.369 ± 0.044 | 0.37 ± 0.044
x2 = 0.958 | 819 ± 2 | 813 ± 2 | 808 ± 2 | – | 0.379 ± 0.045 | 0.333 ± 0.041 | 0.322 ± 0.04
x2 = 0.959 | – | – | – | 1186.8 ± 9.9 | – | – | –

O=CC=Cc1ccccc1 [(E)-3-phenyl-2-propanal]
[1]
Details | mass density [kg/m3] | viscosity [mPa·s]
298.15 K | 1046 ± 2 | 3.478 ± 0.31
308.15 K | 1039 ± 3 | 2.688 ± 0.24
318.15 K | 1032 ± 3 | 2.296 ± 0.21

O=CC=Cc1ccccc1 [(E)-3-phenyl-2-propanal] + C=CC#N
[2]
Details | mass density, 298.15 K [kg/m3] | mass density, 308.15 K [kg/m3] | mass density, 318.15 K [kg/m3] | speed of sound, 298.15 K [m/s] | viscosity, 298.15 K [mPa·s] | viscosity, 308.15 K [mPa·s] | viscosity, 318.15 K [mPa·s]
x2 = 0 | 1046 ± 2 | 1039 ± 3 | 1032 ± 3 | – | 3.478 ± 0.31 | 2.688 ± 0.24 | 2.296 ± 0.21
x2 = 0.2168 | 1017 ± 2 | 1011 ± 2 | – | – | 2.014 ± 0.18 | 1.698 ± 0.16 | –
x2 = 0.217 | – | – | 1009 ± 3 | 1487.6 ± 12 | – | – | 1.456 ± 0.14
x2 = 0.3837 | 990 ± 2 | 985 ± 2 | – | – | 1.4 ± 0.13 | 1.215 ± 0.12 | –
x2 = 0.384 | – | – | 983 ± 3 | 1433.3 ± 11 | – | – | 1.078 ± 0.11
x2 = 0.516 | – | – | 957 ± 2 | 1403 ± 11 | – | – | 0.83 ± 0.084
x2 = 0.5163 | 964 ± 2 | 958 ± 2 | – | – | 1.02 ± 0.1 | 0.906 ± 0.091 | –
x2 = 0.624 | – | – | 930 ± 2 | 1372 ± 11 | – | – | 0.684 ± 0.072
x2 = 0.6241 | 937 ± 2 | 931 ± 2 | – | – | 0.795 ± 0.081 | 0.724 ± 0.075 | –
x2 = 0.7135 | 911 ± 2 | 905 ± 2 | – | – | 0.646 ± 0.068 | 0.603 ± 0.065 | –
x2 = 0.714 | – | – | 904 ± 2 | 1330.3 ± 11 | – | – | 0.581 ± 0.063
x2 = 0.7889 | 886 ± 2 | 881 ± 2 | – | – | 0.56 ± 0.061 | 0.519 ± 0.057 | –
x2 = 0.789 | – | – | 878 ± 2 | 1288.7 ± 10 | – | – | 0.457 ± 0.052
x2 = 0.853 | – | – | 854 ± 2 | 1251.2 ± 10 | – | – | 0.43 ± 0.05
x2 = 0.8532 | 862 ± 2 | 856 ± 2 | – | – | 0.474 ± 0.053 | 0.441 ± 0.051 | –
x2 = 0.9088 | 839 ± 2 | 833 ± 2 | – | – | 0.423 ± 0.049 | 0.405 ± 0.047 | –
x2 = 0.909 | – | – | 830 ± 2 | 1224.1 ± 10 | – | – | 0.394 ± 0.047
x2 = 0.957 | – | – | 805 ± 2 | 1186.8 ± 9.9 | – | – | 0.348 ± 0.043
x2 = 0.9573 | 817 ± 2 | 810 ± 2 | – | – | 0.388 ± 0.046 | 0.359 ± 0.044 | –

C=CC#N [acrylonitrile]
[1]
Details | mass density [kg/m3] | viscosity [mPa·s]
298.15 K | 794 ± 2 | 0.344 ± 0.042
308.15 K | 788 ± 2 | 0.307 ± 0.039
318.15 K | 783 ± 2 | 0.284 ± 0.037

C=CC#N [acrylonitrile] + COc1ccc(C=O)cc1
[2], x1 = 1
Details | mass density [kg/m3] | viscosity [mPa·s]
298.15 K | 794 ± 2 | 0.344 ± 0.042
308.15 K | 788 ± 2 | 0.307 ± 0.039
318.15 K | 783 ± 2 | 0.284 ± 0.037

C=CC#N [acrylonitrile] + O=CC=Cc1ccccc1
[2], x1 = 1
Details | mass density [kg/m3] | viscosity [mPa·s]
298.15 K | 794 ± 2 | 0.344 ± 0.042
308.15 K | 788 ± 2 | 0.307 ± 0.039
318.15 K | 783 ± 2 | 0.284 ± 0.037

C=CC#N [acrylonitrile] + O=Cc1ccccc1
[2]
Details | mass density, 298.15 K [kg/m3] | mass density, 308.15 K [kg/m3] | mass density, 318.15 K [kg/m3] | speed of sound, 298.15 K [m/s] | viscosity, 298.15 K [mPa·s] | viscosity, 308.15 K [mPa·s] | viscosity, 318.15 K [mPa·s]
x1 = 0.182 | 1022 ± 2 | 1011 ± 2 | 1005 ± 3 | 1412.7 ± 11 | 1.224 ± 0.12 | 1.071 ± 0.11 | 0.973 ± 0.096
x1 = 0.333 | 995 ± 2 | 985 ± 2 | 980 ± 3 | 1394.7 ± 11 | 1.079 ± 0.11 | 0.941 ± 0.094 | 0.851 ± 0.086
x1 = 0.462 | 969 ± 2 | 959 ± 2 | 954 ± 2 | 1353.1 ± 11 | 0.958 ± 0.095 | 0.827 ± 0.084 | 0.746 ± 0.077
x1 = 0.571 | 940 ± 2 | 932 ± 2 | 928 ± 2 | 1322.4 ± 11 | 0.842 ± 0.085 | 0.724 ± 0.075 | 0.653 ± 0.069
x1 = 0.667 | 914 ± 2 | 906 ± 2 | 902 ± 2 | 1292.8 ± 11 | 0.74 ± 0.076 | 0.63 ± 0.067 | 0.571 ± 0.062
x1 = 0.75 | 887 ± 2 | 880 ± 2 | 877 ± 2 | 1259.4 ± 10 | 0.649 ± 0.069 | 0.55 ± 0.06 | 0.5 ± 0.056
x1 = 0.824 | 863 ± 2 | 856 ± 2 | 854 ± 2 | 1237.6 ± 10 | 0.565 ± 0.061 | 0.478 ± 0.054 | 0.436 ± 0.05
x1 = 0.889 | 839 ± 2 | 833 ± 2 | 830 ± 2 | 1212 ± 10 | 0.484 ± 0.054 | 0.416 ± 0.048 | 0.379 ± 0.045
x1 = 0.947 | 816 ± 2 | 810 ± 2 | 806 ± 2 | 1186.8 ± 9.9 | 0.41 ± 0.048 | 0.358 ± 0.043 | 0.328 ± 0.041
x1 = 1 | 794 ± 2 | 788 ± 2 | 783 ± 2 | – | 0.344 ± 0.042 | 0.307 ± 0.039 | 0.284 ± 0.037

O=Cc1ccccc1 [benzaldehyde]
[1]
Details | mass density [kg/m3] | viscosity [mPa·s]
298.15 K | 1041 ± 2 | 1.399 ± 0.13
308.15 K | 1034 ± 2 | 1.224 ± 0.12
318.15 K | 1027 ± 3 | 1.12 ± 0.11

O=Cc1ccccc1 [benzaldehyde] + C=CC#N
[2], x2 = 0
Details | mass density [kg/m3] | viscosity [mPa·s]
298.15 K | 1041 ± 2 | 1.399 ± 0.13
308.15 K | 1034 ± 2 | 1.224 ± 0.12
318.15 K | 1027 ± 3 | 1.12 ± 0.11
